Values of other authors in PMC3212850 (ACS Medicinal Chemistry Letters, 2011).

Test system: cell lines

apratoxin B
activity relative to apratoxin A: reduces activity
